Results: EPA's CvTdb concentration-time database

What was measured:
rat [1] = experiment: concentration in blood after dosing
rat [2] = experiment: concentration in blood after dosing; settings: dosed: benzene, 40000 ppm, dermal, duration: 4 hr, male, F344
rat [3] = experiment: concentration in adipose after dosing; settings: dosed: benzene, 190 ppm, inhalation, duration: 6 hr, male, Fisher
rat [4] = experiment: concentration in blood after dosing; settings: dosed: benzene, 40000 ppm, dermal, duration: 4 hr, male, F344; remark: listed apart in the source
rat [5] = experiment: concentration in blood after dosing; settings: dosed: benzene, 40000 ppm, dermal, duration: 4 hr, male, F344; remark: listed apart in the source
rat [6] = experiment: concentration in blood after dosing; settings: dosed: benzene, 40000 ppm, dermal, duration: 4 hr, male, F344; remark: listed apart in the source

## COc1ccccc1N=Nc1c(O)ccc2ccccc12 [Solvent red1]
Rat [1]; 251 s, dosed: Solvent red1, 20 mg/kg, oral, Sprague Dawley
  concentration in blood: 2.62 ng/mL
Rat [1]; 0.2399 h, dosed: Solvent red1, 20 mg/kg, oral, Sprague Dawley
  concentration in blood: 122 ng/mL
Rat [1]; 0.4077 h, dosed: Solvent red1, 20 mg/kg, oral, Sprague Dawley
  concentration in blood: 341 ng/mL
Rat [1]; 0.7668 h, dosed: Solvent red1, 20 mg/kg, oral, Sprague Dawley
  concentration in blood: 990 ng/mL
Rat [1]; 1.067 h, dosed: Solvent red1, 20 mg/kg, oral, Sprague Dawley
  concentration in blood: 510 ng/mL
Rat [1]; 1.606 h, dosed: Solvent red1, 20 mg/kg, oral, Sprague Dawley
  concentration in blood: 274 ng/mL
Rat [1]; 2.085 h, dosed: Solvent red1, 20 mg/kg, oral, Sprague Dawley
  concentration in blood: 139 ng/mL
Rat [1]; 2.561 h, dosed: Solvent red1, 20 mg/kg, oral, Sprague Dawley
  concentration in blood: 90.5 ng/mL
Rat [1]; 3.615 h, dosed: Solvent red1, 20 mg/kg, oral, Sprague Dawley
  concentration in blood: 46.4 ng/mL
Rat [1]; 4.567 h, dosed: Solvent red1, 20 mg/kg, oral, Sprague Dawley
  concentration in blood: 15.8 ng/mL
Rat [1]; 5.518 h, dosed: Solvent red1, 20 mg/kg, oral, Sprague Dawley
  concentration in blood: 10.3 ng/mL
Rat [1]; 7.58 h, dosed: Solvent red1, 20 mg/kg, oral, Sprague Dawley
  concentration in blood: 8.35 ng/mL
Rat [1]; 9.583 h, dosed: Solvent red1, 20 mg/kg, oral, Sprague Dawley
  concentration in blood: 4.6 ng/mL
Rat [1]; 13.09 h, dosed: Solvent red1, 20 mg/kg, oral, Sprague Dawley
  concentration in blood: 4.34 ng/mL
Rat [1]; 18.04 h, dosed: Solvent red1, 20 mg/kg, oral, Sprague Dawley
  concentration in blood: 1.27 ng/mL
Rat [1]; 24.03 h, dosed: Solvent red1, 20 mg/kg, oral, Sprague Dawley
  concentration in blood: 0.824 ng/mL

## c1ccccc1 [benzene]
Rat [2]; 0.5 h
  concentration in blood: 10000 ng/mL
Rat [2]; 1 h
  concentration in blood: 9650 ng/mL
Rat [2]; 2 h
  concentration in blood: 9690 ng/mL
Rat [2]; 3 h
  concentration in blood: 12300 ng/mL
Rat [2]; 4 h
  concentration in blood: 10200 ng/mL
Rat [3]; 0.4898 h
  concentration in adipose: 7580 ng/mL
Rat [3]; 0.99 h
  concentration in adipose: 19500 ng/mL
Rat [3]; 1.49 h
  concentration in adipose: 27500 ng/mL
Rat [3]; 1.989 h
  concentration in adipose: 34600 ng/mL
Rat [3]; 3.993 h
  concentration in adipose: 106000 ng/mL
Rat [3]; 5.974 h
  concentration in adipose: 159000 ng/mL
Rat [3]; 6.485 h
  concentration in adipose: 181000 ng/mL
Rat [3]; 6.98 h
  concentration in adipose: 142000 ng/mL
Rat [3]; 7.478 h
  concentration in adipose: 126000 ng/mL
Rat [3]; 8.014 h
  concentration in adipose: 95900 ng/mL
Rat [3]; 8.509 h
  concentration in adipose: 63800 ng/mL
Rat [3]; 8.999 h
  concentration in adipose: 70400 ng/mL
Rat [3]; 10 h
  concentration in adipose: 41500 ng/mL
Rat [3]; 11.99 h
  concentration in adipose: 13400 ng/mL
Rat [3]; 15 h
  concentration in adipose: 8140 ng/mL
Rat [4]; 0.5 h
  concentration in blood: 7670 ng/mL
Rat [4]; 1 h
  concentration in blood: 8220 ng/mL
Rat [4]; 2 h
  concentration in blood: 9710 ng/mL
Rat [4]; 3 h
  concentration in blood: 10600 ng/mL
Rat [4]; 4 h
  concentration in blood: 11100 ng/mL
Rat [5]; 0.5 h
  concentration in blood: 8340 ng/mL
Rat [5]; 1 h
  concentration in blood: 10300 ng/mL
Rat [5]; 2 h
  concentration in blood: 13100 ng/mL
Rat [5]; 3 h
  concentration in blood: 12300 ng/mL
Rat [5]; 4 h
  concentration in blood: 11500 ng/mL
Rat [1]; 0.5 h, dosed: benzene, 40000 ppm, dermal, duration: 4 hr, male, F344
  concentration in blood: 7380 ng/mL
Rat [1]; 1 h, dosed: benzene, 40000 ppm, dermal, duration: 4 hr, male, F344
  concentration in blood: 8530 ng/mL
Rat [1]; 2 h, dosed: benzene, 40000 ppm, dermal, duration: 4 hr, male, F344
  concentration in blood: 8050 ng/mL
Rat [1]; 3 h, dosed: benzene, 40000 ppm, dermal, duration: 4 hr, male, F344
  concentration in blood: 10400 ng/mL
Rat [1]; 4 h, dosed: benzene, 40000 ppm, dermal, duration: 4 hr, male, F344
  concentration in blood: 11700 ng/mL
Rat [6]; 0.5 h
  concentration in blood: 7850 ng/mL
Rat [6]; 1 h
  concentration in blood: 8900 ng/mL
Rat [6]; 2 h
  concentration in blood: 10100 ng/mL
Rat [6]; 3 h
  concentration in blood: 10700 ng/mL
Rat [6]; 4 h
  concentration in blood: 11400 ng/mL
